# Measurements: patent US5393923A, “3,5-di-t-butyl-4-hydroxyphenylmethylhydroxylamines and their derivatives, pharmaceutical compositions, and methods of use therefor” (Warner-Lambert Company, priority 1993, dated 1995)
# Assays:
# cyclooxygenase = biological target: T1, cyclooxygenase (Rattus norvegicus, UniProt Q63921); assay: ARBC whole cell cyclooxygenase assay (PGF2α formation, RBL-1 cells); assay type: cell-based
# T1 construct: host or cells: RBL-1
# T1 sequence (Q63921 27-602): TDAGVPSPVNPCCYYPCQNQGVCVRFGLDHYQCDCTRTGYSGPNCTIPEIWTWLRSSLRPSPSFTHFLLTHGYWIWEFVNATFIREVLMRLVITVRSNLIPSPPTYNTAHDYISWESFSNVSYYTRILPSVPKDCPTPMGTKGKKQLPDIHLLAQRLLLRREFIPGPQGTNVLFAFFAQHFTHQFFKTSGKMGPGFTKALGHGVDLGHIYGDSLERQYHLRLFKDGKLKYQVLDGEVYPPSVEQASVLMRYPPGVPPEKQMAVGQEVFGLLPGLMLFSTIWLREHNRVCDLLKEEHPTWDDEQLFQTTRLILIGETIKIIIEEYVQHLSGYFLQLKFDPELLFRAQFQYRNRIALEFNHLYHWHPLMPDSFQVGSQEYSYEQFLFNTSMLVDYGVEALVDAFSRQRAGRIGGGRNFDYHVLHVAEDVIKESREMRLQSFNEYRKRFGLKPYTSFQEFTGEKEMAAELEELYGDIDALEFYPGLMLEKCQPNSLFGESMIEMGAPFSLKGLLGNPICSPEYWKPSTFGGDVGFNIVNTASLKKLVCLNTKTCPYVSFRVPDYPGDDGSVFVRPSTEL
# Method: (§1) ARBL/ARBC WHOLE CELL 5-LIPOXYGENASE AND CYCLOOXYGENASE ASSAYS The rat basophilic leukemia cell line (RBL-1) was obtained from the American Type Culture Collection (Rockville, Md.). Radioimmunoassay (RIA) kits of LTB4 and PGF2α were obtained from Amersham (Arlington Heights, Ill.) and Seragen (Boston, Mass.), respectively. RBL-1 cells are grown in suspension culture in Eagle's minimum essential medium supplemented with 12% fetal bovine serum at 37° C. in an incubator supplied with air-5% carbon dioxide. Cells are harvested by centrifugation. They are washed with cold phosphate-buffered saline, pH 7.4 (PBS; NaCl, 7.1 g; Na2 HPO4, 1.15 g; KH2 PO4, 0.2 g; and KCl, 0.2 g/L). Cells are finally suspended in PBS containing 1.0 mM calcium at a density of 2×10^6 cells/mL. Cells are incubated […] test agent (in DMSO) (1% DMSO is without effect on arachidonic acid metabolism) for 10 minutes at room temperature. Calcium ionophore A23187 (5 μM) is added and cells are incubated for 7 minutes at 37° C. The reaction is stopped by chilling the tubes on ice for 10 minutes. Cells are separated by centrifugation and the supernatant is stored at -20° C. Aliquots (100 μL) are analyzed for LTB4 and PGF2α using radioimmunoassay kits as provided by the supplier. Table 1 contains biochemical data for compounds of Formula I obtained from this whole cell assay as amount of inhibition at given μM or IC50 s which are calculated as the concentration of a test compound in micromoles (μM) causing 50% inhibition of LTB4 or PGF2αformation.
# [1] = system: carrageenan-induced rat foot paw edema; assay: Carrageenan-induced rat foot paw edema-2 (CFE-2) assay; assay type: in vivo; details: dosed 1 hour before carrageenan, edema measured 5 hours after, read-out: CFE ID40
# Method: CARRAGEENAN-INDUCED RAT FOOT PAW EDEMA-2 (CFE-2) ASSAY: PROTOCOL
# Carrageenan solution (1% w/v) is prepared by dissolving 100 mg carrageenan (Marine Colloidal Div., Springfield, N.J.) in 10 mL of sterile saline (0.9%) solution (Travenol). The solution is vortexed for 30 to 45 minutes. Animals are dosed with compound 1 hour before carrageenan challenge. Foot paw edema is induced by injecting 0.10 mL of the 1% carrageenan subcutaneously into the plantar portion of the right hind paw of each rat under light anesthesia. Initial foot paw volume is measured immediately following carrageenan challenge using mercury plethysmography (Buxco Electronics). Edema is measured 5 hours after carrageenan. The difference between the 5-hour and the initial paw volume is expressed as delta edema. The delta edema for each test group of animals is used to calculate the percent inhibition of edema achieved by the compound at the test dose compared with the vehicle control group. The ID40 (the dose at which swelling is inhibited by 40%) is calculated by probit analysis for the dose at which 40% inhibition occurs.
# 5-lipoxygenase = biological target: T2, 5-lipoxygenase (Rattus norvegicus, UniProt P12527); assay: ARBL whole cell 5-lipoxygenase assay (LTB4 formation, RBL-1 cells); assay type: cell-based; details: 50% inhibition of LTB4 formation
# T2 construct: host or cells: RBL-1
# T2 sequence (P12527 1-673): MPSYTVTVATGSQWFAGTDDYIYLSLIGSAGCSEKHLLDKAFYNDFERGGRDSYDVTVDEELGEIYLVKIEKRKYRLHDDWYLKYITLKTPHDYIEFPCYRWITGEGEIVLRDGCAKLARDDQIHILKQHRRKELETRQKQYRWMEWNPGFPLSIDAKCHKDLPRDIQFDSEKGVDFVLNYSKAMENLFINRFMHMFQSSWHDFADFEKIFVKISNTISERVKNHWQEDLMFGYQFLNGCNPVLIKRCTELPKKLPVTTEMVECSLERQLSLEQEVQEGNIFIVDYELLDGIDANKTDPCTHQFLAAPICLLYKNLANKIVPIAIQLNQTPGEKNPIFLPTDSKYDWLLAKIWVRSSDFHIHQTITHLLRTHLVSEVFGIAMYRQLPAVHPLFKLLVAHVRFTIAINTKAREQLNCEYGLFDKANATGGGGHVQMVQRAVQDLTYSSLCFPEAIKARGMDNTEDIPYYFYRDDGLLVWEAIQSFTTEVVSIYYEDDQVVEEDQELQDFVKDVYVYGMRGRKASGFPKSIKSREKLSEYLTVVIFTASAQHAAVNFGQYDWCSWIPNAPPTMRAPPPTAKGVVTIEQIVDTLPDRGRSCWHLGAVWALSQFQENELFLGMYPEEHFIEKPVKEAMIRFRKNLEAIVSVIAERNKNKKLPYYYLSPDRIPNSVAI
# Method: as §1
# gastric ulcers = assay: Gastric ulcerogenicity (UD); assay type: in vivo, Male outbred Wistar rats; details: @ 200 mg/kg; oral, fasted rats, 6 hours; class symbol
# Method: GASTRIC ULCEROGENICITY (UD): PROTOCOL
# Male outbred Wistar rats (100 to 250 g) are fasted for 24 hours. After fasting, test compounds are administered orally (in 2 mL/kg of 0.5% hydroxypropyl methylcellulose) and the rats are denied access to food and water for 6 more hours. The rats are then sacrificed with CO2 so that the stomachs can be removed, opened along the greater curvature, and evaluated for the presence of gastric ulcers. Results are expressed as the percent of rats with gastric ulcers at a given dose or as the UD50 (the dose which causes ulcers in 50% of the rats).
# [2] = system: Mycobacterium-induced rat footpad edema; assay: Mycobacterium-induced rat footpad edema assay (MFE); assay type: in vivo; details: dosed 1 hour before Mycobacterium and on Days 1 and 2, swelling at 72 hours, read-out: MFE ID40
# Method: MYCOBACTERIUM-INDUCED RAT FOOTPAD EDEMA ASSAY (MFE): PROTOCOL
# Mycobacterium butyricum (5 mg/mL) is suspended in paraffin oil by sonication for 10 minutes in an ice bath. Footpad edema is induced on Day 0 by injecting 0.1 mL of the Mycobacterium mixture into the left hindpaw of lightly anesthetized rats. Swelling in the injected hindpaw is determined by mercury plethysmography 72 hours after injection. Groups of rats are treated with test compounds (suspended in 0.5% hydroxypropyl methylcellulose with 0.2% Tween-80) or vehicle 1 hour before Mycobacterium injection and on Days 1 and 2. Inhibition of swelling is determined by comparing the change in hindpaw volume in compound- and vehicle-treated rats. An ID40 (the dose at which swelling is inhibited by 40%) is calculated by probit analysis.
SMILES,"ARBC inhibition of PGF2α at given concentration (cyclooxygenase; @ 16 μM, A23187)",ED40 [1] [mg/kg],IC50 (5-lipoxygenase) [µM],IC50 (cyclooxygenase; 50% inhibition of PGF2α formation) [µM],UD50 (gastric ulcers),ED40 [2] [mg/kg]
"CC(=O)N(O)C(c1ccccc1)c1cc(C(C)(C)C)c(O)c(C(C)(C)C)c1 (centres unmarked) [Example 22, N-[[3,5-Bis(1,1-dimethylethyl)-4-hydroxyphenyl]-phenylmethyl]-N-hydroxyacetamide]",42/75,> 30,4.8,,,
CC(C)(C)c1cc(C(NO)c2ccccc2)cc(C(C)(C)C)c1O (centres unmarked) [Example 20],,13.2,2.3,4.1,N (N = less than 40% inhibition at given concentration),3.8
